Measured values taken from ChEMBL document CHEMBL1201862, “PubChem BioAssay data set” (2004).
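Five concentrations, 48 hours, 96-well plates. Abbreviation: GI50, concentration required for 50% inhibition of growth.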 Active and inactive are the calls of the source. Rule as the data show it: active = GI50 up to about 1.1 µM and inactive = higher.

Assays:
Assay in all cases: NCI anticancer screen, dose series, 48 h
786-0 = tested on: 786-0
A498 = tested on: A498
A549 = tested on: A549
ACHN = tested on: ACHN
CAKI-1 = tested on: CAKI-1
CCRF-CEM = tested on: CCRF-CEM
COLO 205 = tested on: COLO 205
DU-145 = tested on: DU-145
EKVX = tested on: EKVX
HCT-116 = tested on: HCT-116
HCT-15 = tested on: HCT-15
HL-60 = tested on: HL-60
HOP-62 = tested on: HOP-62
HOP-92 = tested on: HOP-92
HT-29 = tested on: HT-29
Hs-578T = tested on: Hs-578T
IGROV-1 = tested on: IGROV-1
K562 = tested on: K562
KM12 = tested on: KM12
LOX IMVI = tested on: LOX IMVI
M14 = tested on: M14
MCF7 = tested on: MCF7
MDA-MB-231 = tested on: MDA-MB-231
MDA-MB-435 = tested on: MDA-MB-435
MDA-N = tested on: MDA-N
MOLT-4 = tested on: MOLT-4
Malme-3M = tested on: Malme-3M
NCI-H226 = tested on: NCI-H226
NCI-H23 = tested on: NCI-H23
NCI-H460 = tested on: NCI-H460
NCI-H522 = tested on: NCI-H522
NCI/ADR-RES = tested on: NCI/ADR-RES
OVCAR-3 = tested on: OVCAR-3
OVCAR-4 = tested on: OVCAR-4
OVCAR-5 = tested on: OVCAR-5
OVCAR-8 = tested on: OVCAR-8
PC-3 = tested on: PC-3
RPMI-8226 = tested on: RPMI-8226
SF-268 = tested on: SF-268
SF-295 = tested on: SF-295
SF-539 = tested on: SF-539
SK-MEL-28 = tested on: SK-MEL-28
SK-MEL-2 = tested on: SK-MEL-2
SK-MEL-5 = tested on: SK-MEL-5
SK-OV-3 = tested on: SK-OV-3
SN12C = tested on: SN12C
SNB-19 = tested on: SNB-19
SNB-75 = tested on: SNB-75
SR = tested on: SR
SW-620 = tested on: SW-620
T47D = tested on: T47D
TK-10 = tested on: TK-10
U-251 = tested on: U-251
UACC-257 = tested on: UACC-257
UACC-62 = tested on: UACC-62
UO-31 = tested on: UO-31
HCC 2998 = tested on: HCC 2998
RXF 393 = tested on: RXF 393

## COc1ccc(OC)c(N(CN2C(=O)CCC2C(=O)O)C(C)=O)c1 (configuration not stated)
786-0
  GI50: > 100 µM (inactive)
A498
  GI50: > 100 µM (inactive)
A549
  GI50: > 100 µM (inactive)
ACHN
  GI50: > 100 µM (inactive)
CAKI-1
  GI50: > 100 µM (inactive)
CCRF-CEM
  GI50: > 100 µM (inactive)
COLO 205
  GI50: > 100 µM (inactive)
DU-145
  GI50: > 100 µM (inactive)
EKVX
  GI50: > 100 µM (inactive)
HCT-116
  GI50: > 100 µM (inactive)
HCT-15
  GI50: > 100 µM
HL-60
  GI50: > 100 µM (inactive)
HOP-62
  GI50: > 100 µM (inactive)
HOP-92
  GI50: > 100 µM (inactive)
HT-29
  GI50: > 100 µM (inactive)
Hs-578T
  GI50: > 100 µM (inactive)
IGROV-1
  GI50: > 100 µM (inactive)
K562
  GI50: > 100 µM (inactive)
KM12
  GI50: > 100 µM (inactive)
LOX IMVI
  GI50: > 100 µM (inactive)
M14
  GI50: > 100 µM (inactive)
MCF7
  GI50: > 100 µM (inactive)
MDA-MB-231
  GI50: > 100 µM (inactive)
MDA-MB-435
  GI50: > 100 µM (inactive)
MDA-N
  GI50: > 100 µM (inactive)
MOLT-4
  GI50: > 100 µM (inactive)
Malme-3M
  GI50: > 100 µM (inactive)
NCI-H226
  GI50: > 100 µM (inactive)
NCI-H23
  GI50: > 100 µM (inactive)
NCI-H460
  GI50: > 10 µM (inactive)
NCI-H522
  GI50: > 100 µM (inactive)
NCI/ADR-RES
  GI50: > 100 µM (inactive)
OVCAR-3
  GI50: > 100 µM (inactive)
OVCAR-4
  GI50: > 100 µM (inactive)
OVCAR-5
  GI50: > 100 µM (inactive)
OVCAR-8
  GI50: > 100 µM (inactive)
PC-3
  GI50: > 100 µM (inactive)
RPMI-8226
  GI50: > 100 µM (inactive)
SF-268
  GI50: > 100 µM (inactive)
SF-295
  GI50: > 100 µM (inactive)
SF-539
  GI50: > 100 µM (inactive)
SK-MEL-28
  GI50: > 100 µM (inactive)
SK-MEL-2
  GI50: > 100 µM (inactive)
SK-MEL-5
  GI50: > 100 µM (inactive)
SK-OV-3
  GI50: > 100 µM (inactive)
SN12C
  GI50: > 100 µM (inactive)
SNB-19
  GI50: > 100 µM (inactive)
SNB-75
  GI50: > 100 µM (inactive)
SR
  GI50: > 100 µM (inactive)
SW-620
  GI50: > 100 µM (inactive)
T47D
  GI50: > 100 µM (inactive)
TK-10
  GI50: > 100 µM (inactive)
U-251
  GI50: > 100 µM (inactive)
UACC-257
  GI50: > 100 µM (inactive)
UACC-62
  GI50: > 100 µM (inactive)
UO-31
  GI50: > 100 µM (inactive)

## CC(C)(NC1=NCCO1)c1ccccc1
786-0
  GI50: > 100 µM (inactive)
A498
  GI50: > 100 µM (inactive)
A549
  GI50: > 100 µM (inactive)
ACHN
  GI50: > 100 µM (inactive)
CAKI-1
  GI50: > 100 µM (inactive)
COLO 205
  GI50: > 100 µM (inactive)
DU-145
  GI50: > 100 µM (inactive)
EKVX
  GI50: > 100 µM (inactive)
HCC 2998
  GI50: > 100 µM (inactive)
HCT-116
  GI50: > 100 µM (inactive)
HCT-15
  GI50: > 100 µM
HOP-62
  GI50: > 100 µM (inactive)
HOP-92
  GI50: > 100 µM (inactive)
HT-29
  GI50: > 100 µM (inactive)
Hs-578T
  GI50: > 100 µM (inactive)
IGROV-1
  GI50: > 100 µM (inactive)
KM12
  GI50: > 100 µM (inactive)
LOX IMVI
  GI50: > 100 µM (inactive)
M14
  GI50: > 100 µM (inactive)
MCF7
  GI50: > 100 µM (inactive)
MDA-MB-231
  GI50: > 100 µM (inactive)
MDA-MB-435
  GI50: > 100 µM (inactive)
MDA-N
  GI50: > 100 µM (inactive)
MOLT-4
  GI50: > 100 µM (inactive)
Malme-3M
  GI50: > 100 µM (inactive)
NCI-H226
  GI50: > 100 µM (inactive)
NCI-H23
  GI50: > 100 µM (inactive)
NCI-H460
  GI50: > 100 µM (inactive)
NCI-H522
  GI50: > 100 µM (inactive)
NCI/ADR-RES
  GI50: > 100 µM (inactive)
OVCAR-3
  GI50: > 100 µM (inactive)
OVCAR-4
  GI50: > 100 µM (inactive)
OVCAR-5
  GI50: > 100 µM (inactive)
OVCAR-8
  GI50: > 100 µM (inactive)
PC-3
  GI50: > 100 µM (inactive)
RPMI-8226
  GI50: > 100 µM (inactive)
RXF 393
  GI50: > 100 µM (inactive)
SF-268
  GI50: > 100 µM (inactive)
SF-295
  GI50: > 100 µM (inactive)
SF-539
  GI50: > 100 µM (inactive)
SK-MEL-28
  GI50: > 100 µM (inactive)
SK-MEL-2
  GI50: > 100 µM (inactive)
SK-MEL-5
  GI50: > 100 µM (inactive)
SK-OV-3
  GI50: > 100 µM (inactive)
SN12C
  GI50: > 100 µM (inactive)
SNB-19
  GI50: 43.4 µM (inactive)
SNB-75
  GI50: > 100 µM (inactive)
SW-620
  GI50: > 100 µM (inactive)
T47D
  GI50: > 100 µM (inactive)
TK-10
  GI50: > 100 µM (inactive)
U-251
  GI50: > 100 µM (inactive)
UACC-257
  GI50: > 100 µM (inactive)
UACC-62
  GI50: > 100 µM (inactive)
UO-31
  GI50: > 100 µM (inactive)

## CCOC(=O)C(C#N)C1=CC(=O)C(=O)c2ccc(O)cc21 (configuration not stated)
786-0
  GI50: > 100 µM (inactive)
A498
  GI50: > 100 µM (inactive)
A549
  GI50: > 100 µM (inactive)
ACHN
  GI50: 42.3 µM (inactive)
CAKI-1
  GI50: > 100 µM (inactive)
CCRF-CEM
  GI50: > 100 µM (inactive)
COLO 205
  GI50: > 100 µM (inactive)
DU-145
  GI50: > 100 µM (inactive)
EKVX
  GI50: > 100 µM (inactive)
HCC 2998
  GI50: > 100 µM (inactive)
HCT-116
  GI50: 55.1 µM (inactive)
HCT-15
  GI50: > 100 µM
HL-60
  GI50: > 100 µM (inactive)
HOP-62
  GI50: > 100 µM (inactive)
HT-29
  GI50: > 100 µM (inactive)
Hs-578T
  GI50: 17.2 µM (inactive)
IGROV-1
  GI50: 78 µM (inactive)
K562
  GI50: > 100 µM (inactive)
KM12
  GI50: > 100 µM (inactive)
LOX IMVI
  GI50: 36.7 µM (inactive)
M14
  GI50: 20.9 µM (inactive)
MCF7
  GI50: > 100 µM (inactive)
MDA-MB-231
  GI50: 32.1 µM (inactive)
MDA-MB-435
  GI50: 21.1 µM (inactive)
MDA-N
  GI50: 18.5 µM (inactive)
MOLT-4
  GI50: > 100 µM (inactive)
Malme-3M
  GI50: 47 µM (inactive)
NCI-H226
  GI50: 41.2 µM (inactive)
NCI-H23
  GI50: 19.3 µM (inactive)
NCI-H460
  GI50: > 100 µM (inactive)
NCI-H522
  GI50: 26.9 µM (inactive)
NCI/ADR-RES
  GI50: > 100 µM (inactive)
OVCAR-3
  GI50: 64 µM (inactive)
OVCAR-4
  GI50: 58.9 µM (inactive)
OVCAR-5
  GI50: > 100 µM (inactive)
OVCAR-8
  GI50: 44.7 µM (inactive)
PC-3
  GI50: > 100 µM (inactive)
RPMI-8226
  GI50: > 100 µM (inactive)
RXF 393
  GI50: > 100 µM (inactive)
SF-268
  GI50: > 100 µM (inactive)
SF-295
  GI50: 90.6 µM (inactive)
SF-539
  GI50: 55.3 µM (inactive)
SK-MEL-28
  GI50: > 100 µM (inactive)
SK-MEL-2
  GI50: 23.2 µM (inactive)
SK-MEL-5
  GI50: 42.7 µM (inactive)
SK-OV-3
  GI50: > 100 µM (inactive)
SN12C
  GI50: > 100 µM (inactive)
SNB-19
  GI50: > 100 µM (inactive)
SNB-75
  GI50: 51.1 µM (inactive)
SR
  GI50: > 100 µM (inactive)
SW-620
  GI50: 77.4 µM (inactive)
T47D
  GI50: 79.4 µM (inactive)
TK-10
  GI50: > 100 µM (inactive)
U-251
  GI50: 48.5 µM (inactive)
UACC-257
  GI50: 31.9 µM (inactive)
UACC-62
  GI50: 17.1 µM (inactive)
UO-31
  GI50: 30.5 µM (inactive)
